Measured values from publication PMC3235172, “Distinct Expression Profiles and Different Functions of Odorant Binding Proteins in Nilaparvata lugens Stål” (PLoS ONE, 2011).
pIC50, pKi: −log10 of the molar value. Like-named read-outs stand apart in the source and are kept apart here.

Key:
NlugOBP1 = NlugOBP1 (Nilaparvata lugens, UniProt B6E9U1); experiment: Competitive fluorescence binding assay (1-NPN probe) with recombinant NlugOBP1
Protocol: (§1) The excitation wavelength was 337 nm and the emission spectrum was recorded between 370 and 460 nm by a fluorescence spectrometer (Hitachi F-7000 Fluorescence Spectrophotometer, Japan) with a 1 cm light path quartz cuvette and 10 nm slits for both excitation and emission.

NlugOBP2 [1] = experiment: Competitive fluorescence binding assay (1-NPN probe) with recombinant NlugOBP2; set-up: species or system Nilaparvata lugens; details: protein and 1-NPN at 2 µM
Protocol: as §1

NlugOBP3 = NlugOBP3 (Nilaparvata lugens, UniProt B6E9U3); experiment: Competitive fluorescence binding assay (1-NPN probe) with recombinant NlugOBP3
Protocol: as §1

NlugOBP2 [2] = target: NlugOBP2 (Nilaparvata lugens, UniProt B6E9U2); experiment: Competitive fluorescence binding assay (1-NPN probe) with recombinant NlugOBP2
Protocol: as §1

[3] = calculated from IC50, protein and 1-NPN at 2 µM, pH 7.4, read-out: OBP1 Ki
[4] = displacement of 1-NPN, protein and 1-NPN at 2 µM, 50 mM Tris-HCl pH 7.4, read-out: OBP1 IC50
[5] = calculated from IC50, protein and 1-NPN at 2 µM, pH 7.4, read-out: OBP2 Ki
[6] = displacement of 1-NPN, protein and 1-NPN at 2 µM, 50 mM Tris-HCl pH 7.4, read-out: OBP2 IC50
[7] = calculated from IC50, protein and 1-NPN at 2 µM, pH 7.4, read-out: OBP3 Ki
[8] = displacement of 1-NPN, protein and 1-NPN at 2 µM, 50 mM Tris-HCl pH 7.4, read-out: OBP3 IC50

Chain of NlugOBP2 (Nilaparvata lugens, UniProt B6E9U2) (B6E9U2 entry or part of it): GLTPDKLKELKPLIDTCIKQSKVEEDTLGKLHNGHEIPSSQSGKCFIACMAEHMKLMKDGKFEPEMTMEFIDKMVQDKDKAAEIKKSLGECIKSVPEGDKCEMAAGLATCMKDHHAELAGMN
Chain of NlugOBP3 (B6E9U3 entry or part of it): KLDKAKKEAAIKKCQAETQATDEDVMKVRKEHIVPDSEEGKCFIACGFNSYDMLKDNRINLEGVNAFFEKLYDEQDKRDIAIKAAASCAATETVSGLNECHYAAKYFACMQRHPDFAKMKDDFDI
Chain of NlugOBP1 (B6E9U1 entry or part of it): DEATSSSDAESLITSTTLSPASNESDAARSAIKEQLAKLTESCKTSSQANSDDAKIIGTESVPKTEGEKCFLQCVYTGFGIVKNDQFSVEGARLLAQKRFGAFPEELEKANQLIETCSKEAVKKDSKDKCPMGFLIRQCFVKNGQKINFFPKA

SMILES	pKi (NlugOBP1; [3])	pIC50 (NlugOBP1; [4])	pKi (NlugOBP2 [2]; [5])	pIC50 (NlugOBP2 [2]; [6])	pKi (NlugOBP3; [7])	pIC50 (NlugOBP3; [8])	binding ability with NlugOBP1 (in words) (NlugOBP1)	binding ability with NlugOBP2 (in words) (NlugOBP2 [2])	binding ability with NlugOBP3 (in words) (NlugOBP3)	pIC50 (NlugOBP1)	pKi (NlugOBP1)	pKi (NlugOBP2 [1]; calculated from IC50, pH 7.4, read-out: OBP2 Ki)	pIC50 (NlugOBP2 [1]; displacement of 1-NPN, 50 mM Tris-HCl pH 7.4, read-out: OBP2 IC50)	pIC50 (NlugOBP3)	pKi (NlugOBP3)	pIC50 (NlugOBP2 [2])	pKi (NlugOBP2 [2])
C[C@@H]1CC[C@H]2C(C)(C)[C@H]3C[C@@]12CC[C@@]3(C)O [Ligand 9, Cedrol]										4.52	4.59	4.52	4.46	4.71	4.85		
CCCCCC(C)O (stereo not drawn) [Ligand 2, 2-Heptanol]	< 4.30	< 4.30	< 4.30	< 4.30	< 4.30	< 4.30											
CC1CCC(C(C)C)C(O)C1 (stereo not drawn) [Ligand 10, Menthol]										< 4.30	< 4.30			< 4.30	< 4.30	< 4.30	< 4.30
CCCCCCCCCCCCCC [Ligand 32, Tetradecane]	< 4.30	< 4.30	< 4.30	< 4.30	< 4.30	< 4.30											
COC(=O)c1ccccc1 [Ligand 24, Methyl benzoate]										< 4.30	< 4.30			< 4.30	< 4.30	< 4.30	< 4.30
CCCCCCCCCCCCC [Ligand 29, Tridecane]	< 4.30	< 4.30	< 4.30	< 4.30	< 4.30	< 4.30											

Continued, in another order:

pKi (NlugOBP1; [3])	pIC50 (NlugOBP1; [4])	pKi (NlugOBP2 [2]; [5])	pIC50 (NlugOBP2 [2]; [6])	pKi (NlugOBP3; [7])	pIC50 (NlugOBP3; [8])	binding ability with NlugOBP1 (in words) (NlugOBP1)	binding ability with NlugOBP2 (in words) (NlugOBP2 [2])	binding ability with NlugOBP3 (in words) (NlugOBP3)	SMILES	pIC50 (NlugOBP1)	pKi (NlugOBP1)	pKi (NlugOBP2 [1]; calculated from IC50, pH 7.4, read-out: OBP2 Ki)	pIC50 (NlugOBP2 [1]; displacement of 1-NPN, 50 mM Tris-HCl pH 7.4, read-out: OBP2 IC50)	pIC50 (NlugOBP3)	pKi (NlugOBP3)	pIC50 (NlugOBP2 [2])	pKi (NlugOBP2 [2])
4.53	4.46	4.56	4.49	4.64	4.49	relatively high binding abilities	relatively high binding abilities	relatively high binding abilities	CC(=O)c1ccccc1 [Ligand 17, Acetophenone]								
4.69	4.62	4.43	4.36	5.07	4.92	relatively high binding abilities	relatively high binding abilities	relatively high binding abilities	CCCCCCCCCCCC(C)=O [Ligand 15, 2-Tridecanone]								
						relatively high binding abilities	relatively high binding abilities	relatively high binding abilities	CC(=O)/C=C/C1=C(C)CCCC1(C)C [Ligand 37, β- Ionone]	4.60	4.67			5.07	5.21	4.59	4.65
4.62	4.55	4.54	4.47	4.75	4.61				C=CC(C)(O)CC/C=C(\C)CCC=C(C)C (racemic) [Ligand 3, (+/-)Nerolidol]								
